# Experimental data from patent US8354387B2, “Methods and compositions for delivering siRNA into mammalian cells” (Centre National de la Recherche Scientifique, priority 2004, dated 2013).
# Key:
# [1] = test system: human fibroblasts (Hs68) or HeLa cells; assay: Delivery of pRL-SV40 luciferase plasmid with inhibitors of the endosomal pathway or at 4° C.; type: cell-based
# Description: FIG. 1: MPG-mediated gene delivery in the presence of inhibitors of the endosomal pathway. A/ MPG/DNA complexes formed at a charge ratio of 5/1 with 100 ng pRL-SV40 plasmid encoding the reporter gene luciferase were overlaid onto human fibroblasts (Hs68) in the presence of either bafilomycin A (Baf-A: 150 nM), cytochalasin B (Cy-B: 50 μg/ml) or chloroquine (Chi: 100 μM). After 48 hrs cell extracts were prepared and luciferase activity was measured and reported as a function of total protein (black). Similar experiments were performed using a lipid-based delivery system, Lipofectamine™, as a control (white). Experiments in the absence of inhibitors were also performed using an MPG peptide lacking a C-terminal cysteamide group (grey). B/ A 36mer fluorescein labelled oligonucleotide was complexed with MPG at a charge ratio of 5/1. Complexes were then overlaid onto cultured Hela cells in the presence of bafilomycin A (middle panel) or cytochalasin B (bottom panel) and cellular localization of the oligonucleotide was monitored by fluorescence microscopy on living cells 1 hr after transfection. A control experiment with free oligonucleotide is shown in the top panel.
# Hs68, Cos-7 and HeLa cell lines were cultured in Dulbecco's Modified Eagle's Medium supplemented with 2 mM glutamine, 1% antibiotics (streptomycin 10 000 μg/ml, penicillin, 10,000 IU/ml) and 10% (w/v) fetal calf serum (FCS) at 37° C. in a humidified atmosphere containing 5% CO2 as described previously (18). For MPG or MPG^ΔNLS-mediated gene delivery, peptide carrier/DNA complexes were formed in DMEM or PBS (500 μl of DMEM containing 100 ng of DNA complexed with MPG at a charge ratio 5:1) and incubated for 30 min at 37° C. Cells grown to 60% confluence were then overlaid with these preformed complexes. […]
# For cell cycle-dependent studies, Hs68 fibroblasts were synchronized by serum deprivation for 40 hrs, then restimulated to enter the cycle and grow into early G1 for 4 hrs by addition of fresh DMEM supplemented with 20% FCS, and incubated in the presence of MPG/DNA complexes as described above. Luciferase activity was monitored as described previously (19) and control transfection experiments were performed using Lipofectamine™. […]
# A plasmid encoding the reporter gene luciferase, pRL-SV40, was associated with MPG carrier at a charge ratio of 5:1 (MPG/DNA) and overlaid onto cultured human fibroblasts (Hs68) or HeLa cells in the presence of either bafilomycin A (150 nM), chloroquine (100 μM) or cytochalasin B (50 μg/ml). Transfection efficiency was monitored 30 hrs after transfection and Lipofectamine™ was used as a standard control method for transfection. […]
# [2] = test system: human breast cancer cell line MCF-7; assay: Proliferation of MCF-7 cancer cells; type: cell-based; settings: controls, MCF-7, 8 days
# Description: FIG. 7: Cyclin-B1 siRNA inhibits tumour growth. Exponentially MCF-7 growing cells (1-3 10^4) were incubated with different concentrations (10 nM, 50 nM, 100 nM) of siRNA or mismatched siRNA complexed or not with MPG (molecular ratio 1:10) and cell proliferation was assessed 8 days post incubation.
# Cell culture, MPG mediated transfection. Adherent fibroblastic Hs68 (ATCC no CRL-1635), 293 (ATCC no CRL-1573), HeLa (ATCC no CCL-2) and MCF-7 (ATCC no HTB-22) cell lines were cultured in Dulbecco's Modified Eagle's Medium supplemented with […] glutamine, 1% antibiotics (streptomycin 10,000 μg/ml, penicillin, 10,000 IU/ml) and 10% (w/v) fetal calf serum (FCS), at 37° C. in a humidified atmosphere containing 5% CO2. For MPG-mediated delivery of siRNA, complexes were formed by incubation of different concentrations of siRNA from 10 nM to 1 μM with MPG at a molecular ratio of 1:10, respectively, in 500 μl of DMEM for 30 min at 37° C. Cells grown to 40 to 60% confluence were then overlaid with preformed complexes. After 30 min incubation at 37° C., 1 ml of fresh DMEM supplemented with 10% fetal calf serum was added directly to the cells, without removing the overlay of siRNA/MPG complexes, and cells were returned to the incubator. Different concentrations of siRNA or phosphorothioate oligonucleotide were transfected with cationic lipids, Lipofectamine or Oligofectamine (Invitrogen, Carlsbad, US), according to the guidelines of the manufacturer.
# As delivery of siRNA directed against cyclin B1 promotes efficient downregulation of both cyclin B1 mRNA and protein levels, it was looked for to what extent this might affect proliferation of cancer cells. The effect of siRNA was investigated on the human breast cancer cell line MCF-7. Exponentially growing cells (1-3 10^4) were incubated with different concentrations (10 nM, 50 nM, 100 nM) of siRNA or mismatched siRNA complexed or not with MPG (molecular ratio 1:10) and cell proliferation was assessed 8 days post incubation (FIG. 7).
# [3] = test system: mammalian cells; settings: single- and double-stranded oligonucleotides; cited from earlier work
# [4] = test system: single- and double-stranded oligonucleotides (DNA); settings: cited from earlier work
sequence,measurement,setting,value
"GALFLGFLGAAGSTMGAWSQPKKKRKV (carrier peptide) [MPG, bipartite amphipathic peptide derived from fusion peptide domain of HIV-1 gp41 and NLS of SV40 large T antigen]",localization of fluorescently labelled oligonucleotide in presence of inhibitors,"[1]; 36mer fluorescein oligonucleotide, charge ratio 5/1, Hela cells, after one hour",localized to the nucleus and to cytoplasm of the cells
same,increase of efficiency by chloroquine,"[1]; chloroquine 100 μM, pRL-SV40",10%
same,transfection efficiency in presence of bafilomycin A or cytochalasin B,"[1]; pRL-SV40, charge ratio 5:1, bafilomycin A 150 nM, cytochalasin B 50 μg/ml",not affected
same,reduction of transfection efficiency at 4° C.,[1]; transfection performed at 4° C.,12 fold
same,effect on cell proliferation,[2],"neither free siRNA or scrambled molecules, or the peptide carrier alone affected cell proliferation"
same,time to deliver oligonucleotides into mammalian cells,[3],< 1 h
same,affinity for single-stranded relative to double-stranded oligonucleotides,[4],at least 2 fold
